Laboratory results: ChEMBL document CHEMBL5465560, “Selectivity Literature for EUbOPEN Chemogenomic Library” (2024)

Experiments:
[1] = molecular target: 5'-AMP-activated protein kinase catalytic subunit alpha-1 (Homo sapiens, UniProt Q13131); assay: Selectivity interaction (Kinase panel (KiNativ target engagement assay in Jurkat cells)) EUB0001635a PRKAA1; assay type: cell-based; details: Selectivity number of off-targets 0.0, Selectivity number of targets 233.0, Source Knowledge https://www.sciencedirect.com/science/article/pii/S2451945619300674?via%3Dihub, at 1 µM
Chain of 5'-AMP-activated protein kinase catalytic subunit alpha-1 (Q13131 whole entry, looked up): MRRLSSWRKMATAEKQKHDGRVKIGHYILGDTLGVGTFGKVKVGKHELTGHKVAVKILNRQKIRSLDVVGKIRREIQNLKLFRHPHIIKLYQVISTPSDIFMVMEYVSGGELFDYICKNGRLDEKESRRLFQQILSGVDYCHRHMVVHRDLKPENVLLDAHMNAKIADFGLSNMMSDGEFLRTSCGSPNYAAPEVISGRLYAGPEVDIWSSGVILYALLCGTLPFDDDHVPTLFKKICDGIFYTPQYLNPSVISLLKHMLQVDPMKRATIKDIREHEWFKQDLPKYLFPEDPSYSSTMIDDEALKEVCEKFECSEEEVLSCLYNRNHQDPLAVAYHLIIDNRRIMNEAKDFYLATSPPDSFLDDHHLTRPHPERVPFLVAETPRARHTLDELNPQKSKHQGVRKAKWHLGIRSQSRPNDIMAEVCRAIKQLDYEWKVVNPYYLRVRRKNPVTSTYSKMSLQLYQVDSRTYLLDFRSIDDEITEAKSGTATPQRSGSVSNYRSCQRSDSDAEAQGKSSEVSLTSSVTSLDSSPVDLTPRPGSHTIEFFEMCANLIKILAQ

[2] = molecular target: Bromodomain-containing protein 3 (Homo sapiens) (UniProt Q15059); assay: Selectivity interaction (Human bromodomain panel (DSF assay)) EUB0000233b BRD3
[3] = molecular target: Calcium/calmodulin-dependent protein kinase type 1 (Homo sapiens) (UniProt Q14012); assay: Selectivity interaction (KinomeScan (DiscoverX)) EUB0000229b CAMK1; details: at 10 µM
[4] = molecular target: Fibroblast growth factor receptor 2 (Homo sapiens) (UniProt P21802); assay: Selectivity interaction (KinomeScan (DiscoverX)) EUB0000595a FGFR2; details: at 10 µM
[5] = molecular target: T1, Phosphatidylinositol 4,5-bisphosphate 3-kinase catalytic subunit delta isoform (Homo sapiens) (UniProt O00329); assay: Selectivity interaction (KinomeScan (DiscoverX)) EUB0000595a PIK3CD; details: at 10 µM
T1 sequence (whole entry): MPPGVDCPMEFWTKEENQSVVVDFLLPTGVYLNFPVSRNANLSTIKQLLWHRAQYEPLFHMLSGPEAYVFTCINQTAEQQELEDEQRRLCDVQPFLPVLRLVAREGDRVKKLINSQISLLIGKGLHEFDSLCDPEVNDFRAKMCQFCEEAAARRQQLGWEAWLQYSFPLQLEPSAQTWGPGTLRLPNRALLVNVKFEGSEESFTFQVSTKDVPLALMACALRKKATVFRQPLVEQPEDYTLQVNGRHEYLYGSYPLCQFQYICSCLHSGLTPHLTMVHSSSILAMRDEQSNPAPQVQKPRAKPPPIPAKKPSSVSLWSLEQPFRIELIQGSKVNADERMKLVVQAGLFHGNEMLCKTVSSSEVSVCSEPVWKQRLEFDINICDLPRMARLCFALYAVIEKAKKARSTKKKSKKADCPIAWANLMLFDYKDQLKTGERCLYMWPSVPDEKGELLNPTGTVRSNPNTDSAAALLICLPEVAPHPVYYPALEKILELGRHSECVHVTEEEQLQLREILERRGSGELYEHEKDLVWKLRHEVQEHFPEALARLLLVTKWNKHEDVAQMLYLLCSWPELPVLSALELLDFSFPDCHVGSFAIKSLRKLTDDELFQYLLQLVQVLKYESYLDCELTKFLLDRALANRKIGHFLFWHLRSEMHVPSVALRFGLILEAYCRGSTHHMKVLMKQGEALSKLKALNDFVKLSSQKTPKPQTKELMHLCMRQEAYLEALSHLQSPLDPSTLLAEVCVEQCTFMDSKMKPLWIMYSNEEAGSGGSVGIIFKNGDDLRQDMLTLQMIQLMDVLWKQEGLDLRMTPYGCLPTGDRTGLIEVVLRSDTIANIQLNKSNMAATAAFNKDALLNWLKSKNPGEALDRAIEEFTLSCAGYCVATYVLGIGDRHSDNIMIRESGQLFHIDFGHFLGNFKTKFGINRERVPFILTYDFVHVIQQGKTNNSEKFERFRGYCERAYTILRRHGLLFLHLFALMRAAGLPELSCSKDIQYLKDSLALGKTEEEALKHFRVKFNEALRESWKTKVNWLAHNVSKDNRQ

[6] = molecular target: STE20/SPS1-related proline-alanine-rich protein kinase (Homo sapiens) (UniProt Q9UEW8); assay: Selectivity interaction (KinomeScan (DiscoverX)) EUB0000595a STK39; details: at 10 µM
[7] = molecular target: Phosphatidylinositol 4-kinase type 2-alpha (Homo sapiens) (UniProt Q9BTU6); assay: Selectivity interaction (Adapta Assay) EUB0001632a PI4K2A; details: at 10 µM
Chain of Phosphatidylinositol 4-kinase type 2-alpha (Homo sapiens) (Q9BTU6 whole entry): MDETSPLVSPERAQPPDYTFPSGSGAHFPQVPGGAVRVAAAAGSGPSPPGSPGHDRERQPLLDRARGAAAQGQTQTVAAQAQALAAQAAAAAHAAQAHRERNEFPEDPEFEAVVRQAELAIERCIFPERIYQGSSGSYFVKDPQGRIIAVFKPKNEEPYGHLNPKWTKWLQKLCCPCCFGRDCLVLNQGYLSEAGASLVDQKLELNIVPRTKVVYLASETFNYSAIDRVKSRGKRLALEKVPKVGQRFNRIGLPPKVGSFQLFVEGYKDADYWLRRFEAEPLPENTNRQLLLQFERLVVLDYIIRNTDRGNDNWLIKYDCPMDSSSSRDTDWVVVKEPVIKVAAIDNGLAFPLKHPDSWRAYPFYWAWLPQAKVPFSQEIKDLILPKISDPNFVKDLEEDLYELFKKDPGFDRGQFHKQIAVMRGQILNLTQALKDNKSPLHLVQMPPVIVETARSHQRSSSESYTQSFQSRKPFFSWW

[8] = molecular target: Histone-lysine N-methyltransferase SUV39H2 (Homo sapiens) (UniProt Q9H5I1); assay: Selectivity interaction (Methyltransferase screen (radiometric assays, panel of 8 PRMTs, 21 protein lysine methyltransferases, 3 DNA methyltransferases, and one RNA methyltransferase)) EUB0000272b SUV39H2
Chain of Histone-lysine N-methyltransferase SUV39H2 (Homo sapiens) (Q9H5I1 whole entry): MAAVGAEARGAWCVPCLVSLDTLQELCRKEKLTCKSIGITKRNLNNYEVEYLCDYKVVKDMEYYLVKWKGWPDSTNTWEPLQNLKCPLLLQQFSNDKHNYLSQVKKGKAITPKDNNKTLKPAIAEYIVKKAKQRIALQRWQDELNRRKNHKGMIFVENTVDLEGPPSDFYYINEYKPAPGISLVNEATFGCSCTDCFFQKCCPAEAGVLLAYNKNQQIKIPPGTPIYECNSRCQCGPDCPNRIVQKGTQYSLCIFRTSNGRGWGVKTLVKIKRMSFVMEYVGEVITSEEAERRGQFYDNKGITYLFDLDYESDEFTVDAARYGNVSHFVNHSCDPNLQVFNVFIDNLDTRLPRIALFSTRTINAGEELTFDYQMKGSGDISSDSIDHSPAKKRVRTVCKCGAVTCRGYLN

[9] = molecular target: Bromodomain-containing protein 8 (Homo sapiens) (UniProt Q9H0E9); assay: Selectivity interaction (Bromodomain panel (DSF asssay)) EUB0000270b BRD8
Chain of Bromodomain-containing protein 8 (Homo sapiens) (Q9H0E9 whole entry): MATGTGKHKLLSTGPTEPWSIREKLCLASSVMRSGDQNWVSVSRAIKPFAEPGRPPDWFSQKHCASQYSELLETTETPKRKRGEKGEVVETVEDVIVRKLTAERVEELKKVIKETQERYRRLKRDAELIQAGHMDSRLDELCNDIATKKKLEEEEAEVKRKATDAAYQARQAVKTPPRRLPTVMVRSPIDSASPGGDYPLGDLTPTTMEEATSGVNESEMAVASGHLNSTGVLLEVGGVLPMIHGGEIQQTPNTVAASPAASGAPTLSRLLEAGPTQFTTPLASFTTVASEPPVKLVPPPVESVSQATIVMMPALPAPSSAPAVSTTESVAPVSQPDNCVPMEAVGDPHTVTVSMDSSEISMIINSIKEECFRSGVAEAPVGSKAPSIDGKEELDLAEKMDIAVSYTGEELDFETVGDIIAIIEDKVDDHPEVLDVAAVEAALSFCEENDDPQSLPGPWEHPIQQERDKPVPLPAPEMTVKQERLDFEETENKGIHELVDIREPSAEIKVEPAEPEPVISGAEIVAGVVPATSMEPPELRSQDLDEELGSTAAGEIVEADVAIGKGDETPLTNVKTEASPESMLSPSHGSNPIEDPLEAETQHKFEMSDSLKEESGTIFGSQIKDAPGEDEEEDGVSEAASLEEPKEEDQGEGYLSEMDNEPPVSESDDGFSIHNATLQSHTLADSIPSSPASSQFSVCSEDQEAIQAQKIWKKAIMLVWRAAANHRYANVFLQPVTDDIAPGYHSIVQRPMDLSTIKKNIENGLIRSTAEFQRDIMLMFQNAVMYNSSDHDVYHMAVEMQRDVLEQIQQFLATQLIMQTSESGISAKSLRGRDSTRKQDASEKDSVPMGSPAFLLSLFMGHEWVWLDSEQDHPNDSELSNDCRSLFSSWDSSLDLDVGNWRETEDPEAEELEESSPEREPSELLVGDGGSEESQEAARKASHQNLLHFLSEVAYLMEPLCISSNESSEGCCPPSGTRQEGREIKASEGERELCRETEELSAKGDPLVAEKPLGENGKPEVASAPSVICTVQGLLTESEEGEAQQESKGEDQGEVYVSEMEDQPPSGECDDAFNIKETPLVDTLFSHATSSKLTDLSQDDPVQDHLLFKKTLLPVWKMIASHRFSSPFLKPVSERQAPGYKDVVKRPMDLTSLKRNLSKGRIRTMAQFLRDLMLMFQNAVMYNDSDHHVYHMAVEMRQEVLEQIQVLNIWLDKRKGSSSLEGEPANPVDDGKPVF

[10] = molecular target: Mitogen-activated protein kinase 4 (Homo sapiens) (UniProt P31152); details: at 10 µM
Chain of Mitogen-activated protein kinase 4 (Homo sapiens) (P31152 whole entry): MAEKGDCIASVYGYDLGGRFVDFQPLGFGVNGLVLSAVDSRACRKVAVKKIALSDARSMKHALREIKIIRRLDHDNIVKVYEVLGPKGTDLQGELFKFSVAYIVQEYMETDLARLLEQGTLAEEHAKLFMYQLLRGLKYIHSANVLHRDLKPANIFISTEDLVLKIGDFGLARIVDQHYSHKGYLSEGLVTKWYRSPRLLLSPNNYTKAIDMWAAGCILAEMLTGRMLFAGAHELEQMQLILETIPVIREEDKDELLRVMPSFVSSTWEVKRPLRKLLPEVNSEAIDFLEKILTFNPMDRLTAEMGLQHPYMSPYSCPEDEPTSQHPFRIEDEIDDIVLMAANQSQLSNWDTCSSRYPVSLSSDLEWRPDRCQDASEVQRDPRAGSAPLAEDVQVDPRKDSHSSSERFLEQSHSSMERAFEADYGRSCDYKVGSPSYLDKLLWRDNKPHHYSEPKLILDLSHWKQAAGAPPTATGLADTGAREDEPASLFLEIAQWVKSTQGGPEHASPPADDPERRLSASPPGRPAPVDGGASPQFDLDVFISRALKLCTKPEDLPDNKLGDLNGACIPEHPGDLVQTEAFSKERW

[11] = molecular target: T2, Uncharacterized serine/threonine-protein kinase SBK3 (Homo sapiens) (UniProt P0C264); details: at 10 µM
T2 sequence (whole entry): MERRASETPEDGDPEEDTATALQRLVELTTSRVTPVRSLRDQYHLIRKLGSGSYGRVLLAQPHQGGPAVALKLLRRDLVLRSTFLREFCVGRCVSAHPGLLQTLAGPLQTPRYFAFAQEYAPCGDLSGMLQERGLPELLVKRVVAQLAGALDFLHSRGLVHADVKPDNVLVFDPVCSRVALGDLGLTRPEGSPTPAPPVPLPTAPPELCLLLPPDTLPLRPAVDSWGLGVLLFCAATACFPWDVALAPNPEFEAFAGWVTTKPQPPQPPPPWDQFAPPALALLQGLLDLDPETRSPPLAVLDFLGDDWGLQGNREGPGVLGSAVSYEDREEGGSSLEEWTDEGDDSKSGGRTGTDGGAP

[12] = molecular target: Tyrosine-protein kinase JAK2 (Homo sapiens, UniProt O60674); assay: Selectivity interaction (KinomeScan (DiscoverX)) EUB0001049a JAK2; details: at 1 µM
[13] = test system: Epidermal growth factor receptor (Homo sapiens), P00533 [UNDEFINED MUTATION]; assay: Selectivity interaction (KinomeScan (DiscoverX)) EUB0001049a EGFR; details: at 1 µM
[14] = molecular target: Homeodomain-interacting protein kinase 1 (Homo sapiens, UniProt Q86Z02); assay: Selectivity interaction (KinomeScan (DiscoverX)) EUB0001049a HIPK1; details: at 1 µM
Chain of Homeodomain-interacting protein kinase 1 (Q86Z02 whole entry, looked up): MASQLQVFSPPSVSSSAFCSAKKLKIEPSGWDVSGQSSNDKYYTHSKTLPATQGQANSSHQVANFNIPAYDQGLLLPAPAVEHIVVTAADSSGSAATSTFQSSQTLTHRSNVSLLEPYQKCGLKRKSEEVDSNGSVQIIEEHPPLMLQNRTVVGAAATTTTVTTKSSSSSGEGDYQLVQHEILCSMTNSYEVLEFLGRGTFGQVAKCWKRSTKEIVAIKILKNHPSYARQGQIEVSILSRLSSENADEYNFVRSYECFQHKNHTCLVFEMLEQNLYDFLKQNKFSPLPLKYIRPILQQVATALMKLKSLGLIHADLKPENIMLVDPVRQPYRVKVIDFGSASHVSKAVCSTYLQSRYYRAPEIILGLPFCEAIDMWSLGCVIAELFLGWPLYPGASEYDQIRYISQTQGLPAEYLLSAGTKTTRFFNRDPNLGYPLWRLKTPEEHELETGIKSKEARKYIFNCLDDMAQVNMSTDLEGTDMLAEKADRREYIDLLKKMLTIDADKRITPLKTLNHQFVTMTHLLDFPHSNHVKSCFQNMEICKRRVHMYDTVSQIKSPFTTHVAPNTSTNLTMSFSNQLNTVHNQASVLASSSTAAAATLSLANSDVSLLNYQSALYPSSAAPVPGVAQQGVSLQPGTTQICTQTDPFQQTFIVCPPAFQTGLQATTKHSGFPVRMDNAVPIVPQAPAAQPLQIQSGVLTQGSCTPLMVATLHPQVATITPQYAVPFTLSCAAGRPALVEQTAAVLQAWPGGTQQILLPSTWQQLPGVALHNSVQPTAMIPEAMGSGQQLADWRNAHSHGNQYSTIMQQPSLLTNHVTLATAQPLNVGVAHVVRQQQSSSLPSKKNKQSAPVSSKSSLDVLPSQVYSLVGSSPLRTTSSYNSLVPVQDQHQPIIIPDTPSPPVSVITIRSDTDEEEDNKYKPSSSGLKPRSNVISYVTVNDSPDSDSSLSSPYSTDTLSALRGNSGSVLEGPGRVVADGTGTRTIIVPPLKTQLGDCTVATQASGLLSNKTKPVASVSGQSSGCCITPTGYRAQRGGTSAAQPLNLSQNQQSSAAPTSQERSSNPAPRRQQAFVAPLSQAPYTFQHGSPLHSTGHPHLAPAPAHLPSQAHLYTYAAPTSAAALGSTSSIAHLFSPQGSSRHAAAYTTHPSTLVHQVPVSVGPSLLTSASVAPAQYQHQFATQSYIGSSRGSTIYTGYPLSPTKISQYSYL

[15] = molecular target: Serine/threonine-protein kinase VRK2 (Homo sapiens) (UniProt Q86Y07); assay: Selectivity interaction (KinomeScan (DiscoverX)) EUB0000607a VRK2; details: at 10 µM
Chain of Serine/threonine-protein kinase VRK2 (Homo sapiens) (Q86Y07 whole entry): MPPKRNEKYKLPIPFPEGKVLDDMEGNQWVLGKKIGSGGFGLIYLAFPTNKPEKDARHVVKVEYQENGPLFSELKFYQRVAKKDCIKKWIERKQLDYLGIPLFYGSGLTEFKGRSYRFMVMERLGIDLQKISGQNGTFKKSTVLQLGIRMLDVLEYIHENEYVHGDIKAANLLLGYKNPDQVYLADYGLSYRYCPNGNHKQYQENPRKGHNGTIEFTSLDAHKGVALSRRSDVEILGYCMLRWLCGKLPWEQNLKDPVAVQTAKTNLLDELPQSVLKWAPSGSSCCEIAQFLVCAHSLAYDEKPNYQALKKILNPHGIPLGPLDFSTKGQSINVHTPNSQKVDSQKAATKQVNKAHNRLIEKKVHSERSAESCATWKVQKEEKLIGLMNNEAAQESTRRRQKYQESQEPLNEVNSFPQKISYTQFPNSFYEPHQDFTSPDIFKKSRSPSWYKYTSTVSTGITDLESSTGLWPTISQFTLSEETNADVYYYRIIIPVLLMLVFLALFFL

[16] = molecular target: Homeodomain-interacting protein kinase 3 (Homo sapiens, UniProt Q9H422); assay: Selectivity interaction (KinomeScan (DiscoverX)) EUB0000618a HIPK3; details: at 10 µM
[17] = molecular target: Mitogen-activated protein kinase kinase kinase 11 (Homo sapiens) (UniProt Q16584); assay: Selectivity interaction (KinomeScan (DiscoverX)) EUB0000092b MAP3K11; details: at 10 µM
Focal adhesion kinase 1 = Focal adhesion kinase 1 (Homo sapiens, UniProt Q05397); assay: Selectivity interaction (Ambit KINOMEscan and KiNATiv profiling in Jurkat cells) EUB0000090b PTK2; assay type: cell-based; details: at 1 µM

**Q.** How did the % of engagement [1] turn out when `C=CC(=O)Nc1ccc(C(=O)Nc2[nH]nc3c2CN(C(=O)N[C@H](CN(C)C)c2ccccc2)C3(C)C)cc1` was run?
**A.** -51.7%

**Q.** How did the dTM [2] turn out when `CN(C)CCCOc1ccc(-c2cc(NCCCn3cccn3)nc(S(C)(=O)=O)n2)cc1` was run?
**A.** < 2 K

**Q.** How did the % binding [3] turn out when `COc1cc(N(C)c2ccnc3ccc(C(F)(F)F)cc23)cc(OC)c1OC` was run?
**A.** 59%

**Q.** For `COCC(=O)NC/C=C/c1ccc2ncnc(Nc3ccc(Oc4ccc(C)nc4)c(C)c3)c2c1` [CP-724714], which % of control [4] is on record?
**A.** 100%

**Q.** What about the % of control [5] of the same compound?
**A.** 100%

**Q.** And the % of control [6]?
**A.** 100%

**Q.** Which % of inhibition [7] does the source give for `Cn1cc(-n2cnc3c(NCc4nc5cc(Cl)c(Cl)cc5[nH]4)nc(N4CCOCC4)nc32)cn1` here?
**A.** 1.38%

**Q.** What does the source list for `Cc1cc(C)cc([C@H]2c3cc(C)ccc3NC(=O)CN2C(=O)c2ccc(Br)s2)c1`?
**A.** % of activity ([8]; at 1 µM): 99.7%; % of activity ([8]; at 10 µM): 98%

**Q.** For `Cc1cc(CN)cc(C)c1-c1ncn(C)c1-c1cncn1C`, which dTM [9] is on record?
**A.** -1.17 K

**Q.** With `Cc1cc([C@@H](C)Nc2ccccc2C(=O)O)c2nc(N3CCOCC3)cc(=O)n2c1` [AZD-6482] as the compound, how does the % of control [10] read?
**A.** 98%

**Q.** And the % of control [11]?
**A.** 100%

**Q.** For `COc1cc(Nc2nc(C)cc(-c3cnn4nc(OC)ccc34)n2)cc(C(F)(F)F)c1`, which % of control [12] is on record?
**A.** 85%

**Q.** What about the % of control [13] of the same compound?
**A.** 77%

**Q.** What about the % of control [14] of the same compound?
**A.** 70%

**Q.** How did the % of control [15] turn out when `CNC(=O)Nc1ccc(-c2nc(N3CC4CCC(C3)O4)c3cnn(C4CCC5(CC4)OCCO5)c3n2)cc1` was run?
**A.** 100%

**Q.** `O[C@H]1CC[C@H](Nc2ncc3nc(Nc4c(F)cc(F)cc4F)n([C@H]4CCOC4)c3n2)CC1` was tested. Which % of control [16] did it give?
**A.** 95%

**Q.** With `CCC(=O)N1CCN(c2ccc(-n3c(=O)ccc4cnc5ccc(-c6cnc7ccccc7c6)cc5c43)cc2C(F)(F)F)CC1` as the compound, how does the % of control [17] read?
**A.** 69%

**Q.** With `CN(C)C/C=C/C(=O)Nc1ccc(C(=O)N2CCCC(Nc3ncc(Cl)c(-c4c[nH]c5ccccc45)n3)C2)cc1` (centres undefined) as the compound, how does the % of control (Focal adhesion kinase 1) read?
**A.** 74%
